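How tested: cells in 96-well plates exposed to compound for 48 hours at five concentrations. Abbreviation: GI50, concentration required for 50% inhibition of growth.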 The source made the active and inactive calls. No stated cut-off is given here; in the data, active = GI50 up to about 1.1 µM and inactive = higher.
Legend:
Test in all cases: NCI tumour cell line growth inhibition, 48 h
SNB-75 = test system: SNB-75
EKVX = test system: EKVX
U-251 = test system: U-251
SK-MEL-5 = test system: SK-MEL-5
K562 = test system: K562
IGROV-1 = test system: IGROV-1
NCI-H23 = test system: NCI-H23
OVCAR-4 = test system: OVCAR-4
SF-539 = test system: SF-539
ACHN = test system: ACHN
HT-29 = test system: HT-29
SK-OV-3 = test system: SK-OV-3
HOP-18 = test system: HOP-18
SR = test system: SR
OVCAR-3 = test system: OVCAR-3
NCI-H460 = test system: NCI-H460
NCI-H226 = test system: NCI-H226
MDA-MB-435 = test system: MDA-MB-435
A498 = test system: A498
MDA-MB-231 = test system: MDA-MB-231

Row | Structure (SMILES) | GI50 (SNB-75) | GI50 (EKVX) | GI50 (U-251) | GI50 (SK-MEL-5) | GI50 (K562) | GI50 (IGROV-1) | GI50 (NCI-H23) | GI50 (OVCAR-4) | GI50 (SF-539) | GI50 (ACHN) | GI50 (HT-29) | GI50 (SK-OV-3) | GI50 (HOP-18) | GI50 (SR) | GI50 (OVCAR-3) | GI50 (NCI-H460) | GI50 (NCI-H226) | GI50 (MDA-MB-435) | GI50 (A498) | GI50 (MDA-MB-231)
1 | COC(=O)CN(C)P(=O)(N1CC1)N1CC1 | > 100 µM (inactive) | > 100 µM (inactive) | > 100 µM (inactive) | > 100 µM (inactive) | > 100 µM (inactive) | > 100 µM (inactive) | 83.4 µM (inactive) | > 100 µM (inactive) | > 100 µM (inactive) | 71.4 µM (inactive) | > 100 µM (inactive) | > 100 µM (inactive) | – | – | – | – | – | – | – | –
2 | COc1ccc(/N=C\c2ccc(N(CCC#N)S(=O)(=O)c3ccccc3)cc2C)cc1 | > 100 µM (inactive) | > 100 µM (inactive) | > 100 µM (inactive) | 51.1 µM (inactive) | 11.1 µM (inactive) | 64.1 µM (inactive) | 43 µM (inactive) | 74.6 µM (inactive) | 44.2 µM (inactive) | 15.6 µM (inactive) | 53.7 µM (inactive) | > 100 µM (inactive) | > 100 µM (inactive) | 7.96 µM (inactive) | 53.7 µM (inactive) | 34.8 µM (inactive) | > 100 µM (inactive) | – | – | –
3 | O=C1CCCC/C1=C1/SC(=N/c2ccccc2)/C(=N\c2ccccc2)N1c1ccccc1 | 69.5 µM (inactive) | – | > 100 µM (inactive) | > 10 µM (inactive) | > 100 µM (inactive) | > 100 µM (inactive) | > 100 µM (inactive) | – | – | – | > 100 µM (inactive) | > 100 µM (inactive) | – | > 100 µM (inactive) | 40.4 µM (inactive) | > 100 µM (inactive) | 23.4 µM (inactive) | > 10 µM (inactive) | > 100 µM (inactive) | > 100 µM (inactive)
4 | O=c1c(-c2ccccc2)c(SCCN2CCOCC2)n(-c2ccccc2)c(=S)n1-c1ccccc1 | 26.4 µM (inactive) | > 100 µM (inactive) | > 100 µM (inactive) | > 100 µM (inactive) | > 100 µM (inactive) | > 100 µM (inactive) | > 100 µM (inactive) | 32.1 µM (inactive) | > 100 µM (inactive) | > 100 µM (inactive) | – | > 100 µM (inactive) | – | > 100 µM (inactive) | > 100 µM (inactive) | > 100 µM (inactive) | 35.3 µM (inactive) | > 100 µM (inactive) | > 100 µM (inactive) | 83.9 µM (inactive)
5 | CCNC(=S)NNC(=O)c1nsc2ccccc12 | 34.5 µM (inactive) | 18.7 µM (inactive) | 94.2 µM (inactive) | 64.6 µM (inactive) | 64.9 µM (inactive) | > 100 µM (inactive) | > 100 µM (inactive) | > 100 µM (inactive) | > 100 µM (inactive) | > 100 µM (inactive) | 72.1 µM (inactive) | – | 23.1 µM (inactive) | 64 µM (inactive) | 49.1 µM (inactive) | 50.1 µM (inactive) | – | – | – | –
6 | O=C(Nc1ccc([N+](=O)[O-])cc1)C(=O)C(C(=O)c1ccccc1F)C1OC(=O)c2ccccc21 (stereo unspecified) | 30.2 µM (inactive) | 40.4 µM (inactive) | 17.7 µM (inactive) | 48.5 µM (inactive) | 25.3 µM (inactive) | 64.9 µM (inactive) | 81.1 µM (inactive) | 42.8 µM (inactive) | 21.5 µM (inactive) | 58.5 µM (inactive) | 51.9 µM (inactive) | 41.2 µM (inactive) | – | 21.9 µM (inactive) | – | 34.9 µM (inactive) | 16.6 µM (inactive) | – | 80.9 µM (inactive) | –
7 | Nc1nc2ccc3ccccc3c2[nH]1 | > 10 µM (inactive) | > 10 µM (inactive) | > 10 µM (inactive) | > 10 µM (inactive) | > 10 µM (inactive) | > 10 µM (inactive) | > 10 µM (inactive) | > 10 µM (inactive) | > 10 µM (inactive) | > 10 µM (inactive) | > 10 µM (inactive) | > 10 µM (inactive) | – | > 10 µM (inactive) | > 10 µM (inactive) | > 10 µM (inactive) | 8.51 µM (inactive) | > 10 µM (inactive) | > 10 µM (inactive) | > 10 µM (inactive)
8 | CN(C)CCOc1cc2c(c3ccccc13)-c1ccccc1C2O (stereo unspecified) | 10.3 µM (inactive) | 14.8 µM (inactive) | 15.5 µM (inactive) | 15.5 µM (inactive) | 18.6 µM (inactive) | 16.7 µM (inactive) | 16.9 µM (inactive) | 17.9 µM (inactive) | 14.3 µM (inactive) | – | 13.5 µM (inactive) | 16.1 µM (inactive) | 14.8 µM (inactive) | – | 15.6 µM (inactive) | 7.21 µM (inactive) | 13.7 µM (inactive) | – | 15 µM (inactive) | –
9 | CS(C)(=O)=Nn1c(=O)n2n(c1=O)C1c3ccccc3C2c2ccccc21 | – | > 100 µM (inactive) | > 100 µM (inactive) | 43.7 µM (inactive) | > 100 µM (inactive) | > 100 µM (inactive) | > 100 µM (inactive) | – | > 100 µM (inactive) | > 100 µM (inactive) | > 100 µM (inactive) | > 100 µM (inactive) | – | > 100 µM (inactive) | > 100 µM (inactive) | > 100 µM (inactive) | – | > 100 µM (inactive) | > 100 µM (inactive) | > 100 µM (inactive)
10 | O=C(NNC(=S)Nc1ccccc1)c1nsc2ccccc12 | 25.1 µM (inactive) | 25.2 µM (inactive) | 27.1 µM (inactive) | 24.6 µM (inactive) | 35.7 µM (inactive) | 31 µM (inactive) | 36.6 µM (inactive) | 96.8 µM (inactive) | 31.3 µM (inactive) | 39.7 µM (inactive) | 50 µM (inactive) | – | 10.3 µM (inactive) | 22 µM (inactive) | 10.3 µM (inactive) | 21.5 µM (inactive) | – | – | – | –
11 | CSC1SCC2C(=O)N(C)C(C(C)C)C(=O)OCC(NC(=O)c3cnc4ccccc4n3)C(=O)NC(C)C(=O)N(C)C1C(=O)N(C)C(C(C)C)C(=O)OCC(NC(=O)c1cnc3ccccc3n1)C(=O)NC(C)C(=O)N2C (stereo unspecified) | – | 0.0075 µM (active) | 0.0075 µM (active) | 0.0075 µM (active) | – | 0.0075 µM (active) | – | 0.0075 µM (active) | – | – | 0.0075 µM (active) | < 0.0147 µM (active) | 0.0075 µM (active) | 0.000171 µM (active) | 0.0075 µM (active) | 0.0075 µM (active) | 0.0075 µM (active) | 0.00105 µM (active) | 0.0075 µM (active) | 0.000906 µM (active)
12 | COc1cc([C@@H]2c3cc4c(cc3[C@H](O)[C@H]3COC(=O)[C@H]23)OCO4)cc(OC)c1OC [PODOFILOX] | – | – | – | – | < 0.005 µM (active) | – | < 0.005 µM (active) | – | < 0.005 µM (active) | < 0.005 µM (active) | < 0.005 µM (active) | < 0.005 µM (active) | > 100 µM (inactive) | < 0.005 µM (active) | – | – | < 0.005 µM (active) | < 0.005 µM (active) | < 0.005 µM (active) | < 0.005 µM (active)

Source: ChEMBL document CHEMBL1201862, “PubChem BioAssay data set” (2004)
